Columns and labels:
mES (D3) cells = test: mES cell plating efficiency, Oct4 and STAT3 phosphorylation in the presence of LIF; type: cell-based, mouse; details: for Oct4 expression: five day treatments in the presence of LIF; for cell survival in a plating efficiency assay: in the presence of LIF
From the text: FIGS. 10a-10c are a set of images showing JAK inhibition reduces the phosphorylation of STAT3 on Ser727 in mES cell cultures. […] Very low levels of phosphorylated p38 were detectable under all conditions. […] Self-renewal of mES cells correlated with Ser727 phosphorylation.
mES (D3) cells were obtained from ATCC and were maintained in feeder-free cultures on gelatin-coated plates supplemented with 1400 units/ml LIF.
There is great interest in conditions that support the growth of mouse and human ES cells. In contrast to CNS SC (FIG. 2, FIG. 3) and hES SC (se below), the growth of undifferentiated mouse ES cells depends on the stimulation of the JAK/STAT pathway and STAT3 phosphorylation on Tyr705 has been specifically shown to be essential for self-renewal of mouse ES cells (Niwa et al., Genes Dev 12:2048-60, 1998; Matsuda et al., Embo J 18:4261-9, 1999). Ligands that stimulate the JAK/STAT pathway cause human ES cells to differentiate (Daheron et al., Stem Cells 22:770-8, 2004; Humphrey et al., Stem Cells 22:522-30, 2004). It was determined if the Notch/sSTAT survival pathway is present in mouse or human ES cells.

[1] = test system: E13.5 cortical embryonic mouse CNS stem cells; test: CNS stem cell plating efficiency / colony formation / survival; type: cell-based
Protocol: (§1) Cell culture: E13.5 cortical embryonic mouse and adult rat subventricular zone CNS stem cells were grown as previously described (Johe et al., Genes Dev 10:3129-40, 1996; Rajan et al., J Neurosci 18:3620-9, 1998). Cells were expanded in serum-free DMEM/F12 medium with N2 supplement with FGF2 (20 ng/ml) for 5 days and were re-plated at 1000-10,000 cells per cm^2. FGF2 was included throughout our experiments, unless otherwise stated.
To explore these paradoxical observations, CNS stem cell cultures from mid-gestation (embryonic day 13.5) mouse dorsal telencephalon were treated with soluble Notch ligands. […] Following initial passaging, the cells were plated at a density of 1000 cells/cm^2, cultured for 5 days in the presence of FGF2, and colony numbers, sizes, and BrdU incorporation (after a 4 hour BrdU pulse) were enumerated. Notch activation by Jagged-1 or Delta-4 (200 ng/ml) increased the number of colonies generated in vitro by over 3-fold (FIG. 1a). […] The effects of Notch activation were most dramatic when treatments were initiated at the start of the culture.
Insulin in the medium is also thought to promote cell survival. […] Seeding cells in the absence of insulin caused the plating efficiency measured at five days to drop to 29.9%±37.9 (FIG. 1e). Delta-4 was able to compensate for the lack of insulin in the medium, and restored plating efficiency (125%±19.4). Because Notch activation improved survival, activation of Akt, a ser/threonine kinase known to be involved in cell survival, was assayed. Notch activation rapidly (5 minutes) promoted the phosphorylation of Akt on Ser473 and […] in both the presence and absence of insulin (FIG. 1f).

STAT3 = STAT3 phosphorylation (Ser727, Tyr705) immunoblot in CNS stem cells; type: cell-based, mouse
From the text: Ligands that activate JAK/STAT signaling promote astrocytic differentiation of CNS stem cells (Johe et al., Genes Dev 10:3129-40, 1996; Raj an et al., J Neurosci 18:3620-9, 1998; Bonni et al., Science 278:477-83, 1997; Song et al., Nat Neurosci 7:229-35, 2004; He et al., Nat Neurosci 8:616-625, 2005). When applying CNTF to CNS stem cells it was noted that low concentrations of CNTF stimulated survival but not expression of astrocyte specific genes. This is consistent with previous observations of Akt phosphorylation downstream of gp130 activation (Taga et al., Annu Rev Immunol 15:797-819, 1997). […] At high concentrations (20 ng/ml) the phosphorylation of Tyr705 can be blocked by an inhibitor of JAK while allowing a CNTF-induced increase in Ser727 phosphorylation (FIG. 2B) (Thompson et al., Bioorg Med Chem Lett 12:1219-23, 2002).
CNTF was used as a positive control; CNTF, induced the phosphorylation on both sites. With both CNTF and Notch activation, phosphorylation peaked at around 30 min. STAT3 phosphorylation on Ser727 following Notch activation was sensitive to the γ-secretase inhibitor DAPT (FIG. 2e). […] In contrast to CNTF, no Tyr705 phosphorylation was detected at any of the doses of Notch receptor ligands.
It was determined that insulin also maintains phosphorylation of serine 727 in STAT3 in foetal neural stem cell cultures.

adult rat SVZ stem cells = test: Adult SVZ stem cell plating efficiency and colony size; type: cell-based
Protocol: as §1
Very little protein or mRNA were detected outside the SVZ (FIG. 4g). Adult CNS stem cells can be cultured as a monolayer in vitro (FIG. 4h) and they show similar responses to extracellular signals that regulate stem cell differentiation upon withdrawal of the mitogen that sustains the undifferentiated state (Johe et al., Genes Dev 10:3129-40, 1996). To ask if Notch activation promotes survival in rat adult SVZ cultures, isolated cells were grown in the presence of FGF2 with and without Delta-4 for one week. […] When FGF2 was withdrawn for a week, cells at clonal density generated all three CNS lineages (FIG. 8C, Table 4).

Hes3 = Hes3 expression (RT-PCR, immunohistochemistry) in CNS stem cells; type: cell-based, mouse; details: for Hes3 mRNA levels: CNTF 20 ng/ml
Protocol: RT-PCR: For reverse-transcriptase PCR analysis, RNA was extracted from cell cultures or brain homogenates with Trizol (Invitrogen, 15596-026), and PCR reactions were performed with the ProSTAR First-Strand RT-PCR Kit (Stratagene, 200420). Primers were used for the following genes: Hes1, Hes2, Hes3, Hes5, Hes6, Hey2; Hes7
Notch signaling regulates transcription of the Hes/Hey gene family, a group of genes implicated in the control of differentiation (Iso et al., J Cell Physiol 194:237-55, 2003). RT-PCR was used to assess mRNA regulation of these genes one hour after Notch activation in CNS stem cells. […] The ability of high concentrations of CNTF to inhibit Hes3 induction following Notch activation was dependent on JAK activity (FIG. 4e). In contrast, in the absence of added Notch ligand, Hes3 mRNA levels were elevated by high CNTF and the JAK inhibitor (FIG. 4e).
Conversely, treatment with ciliary neurotrophic factor (CNTF), a cytokine that opposes the signal transduction pathway downstream of Notch activation opposed the ability of D114 to induce Hes3 transcription. Immunohistochemical experiments were performed that documented D114, CNTF regulate Hes3 expression. Thus, at the protein expression level, D114 maintains and CNTF inhibits Hes3 expression.

[2] = in the presence of FGF2 for one week

Row | Compound | Oct4 expression (mES (D3) cells) | cell survival in a plating efficiency assay (mES (D3) cells) | plating efficiency ([1]; absence of insulin in the medium, five days) | concentration at which peak STAT3 phosphorylation was achieved (STAT3; dose response, Ser727) [ng/mL] | colony size (adult rat SVZ stem cells; [2]) | plating efficiency (adult rat SVZ stem cells; [2]) | Hes3 mRNA levels (Hes3) | Hes3 expression at the protein expression level (Hes3; immunohistochemical) | STAT3 phosphorylation on Ser727 and Tyr705 (mES (D3) cells; 90 min) | CNS stem cell survival / plating efficiency ([1]; 5 days, versus FGF2 control, CNTF low 0.01, 0.1 ng/ml or high 20 ng/ml with JAK inhibitor) | effect on CNTF-induced STAT3 phosphorylation (STAT3; CNTF 20 ng/ml) | enhancement of plating efficiency (adult rat SVZ stem cells)
1 | Delta-4: soluble Notch ligand Delta-4 (1389-D4) from R&D | did not affect Oct4 expression | did not significantly alter cell survival | 125%±19.4 | ~1 | 278.5%±52.5 | 1050%±273.8 | increases its transcription | maintains |  |  |  | 
2 | CC(C)(C)c1nc2c3ccc(F)cc3c3c(=O)[nH]ccc3c2[nH]1 [JAK Inhibitor, 2-(1,1-Dimethylethyl)-9-fluoro-3,6-dihydro-7H-benz[h]-imidaz[4,5-f]isoquinolin-7-one] | down-regulated Oct4 | reduced it |  |  |  |  | no effect on Hes3 mRNA |  | significant down-regulation | increased survival | selectively blocked Tyr705 but not Ser727 phosphorylation | approx. 40%

Source: patent US20080242594A1, “Methods for Promoting Stem Cell Proliferation and Survival” (priority 2005, published 2008)
